In general, IC50 refers to the concentration needed to halve the response being measured. As usually defined, the inhibition is the drop in the measured response relative to a control, in per cent.

Values joined by “and” are separate entries in the source; they are usually repeats but may differ in a detail not shown here. Equal values may be shown once. Where a name gives a salt, the structure may show the parent alone.

Series [1] can be described thus: PAMPA-BBB permeability test. The protocol: Thus, the passive diffusion of vh0 was evaluated using an in vitro permeability test.
The in vitro Parallel Artificial Permeability Assay—blood brain barrier (PAMPA-BBB) test was carried out by PAMPA Permeability Analyzer (pIONInc, Billerica, MA, USA). The permeabilities (Pe) of the dual-acting pyrrole-based hydrazide—vh0, were evaluated considering the manufacturer BBB Protocol. Initially, the stock solutions of vh0 and reference molecules were dissolved in DMSO and diluted with Prisma HT buffer pH 7.4 (Pion Inc. Billerica, MA, USA) to reach a concentration of 50 μM. The well plates were filled with 200 µL BSB (Brain Skin Buffer). The incubation was established for 4 h at 25 °C with no stirring. The permeability of the structures was evaluated by accessing their concentrations in both the donor and acceptor phases spectrophotometrically. The permeability coefficients were calculated by PAMPA Explorer Command Software and presented as –logPe.

The conditions of series [2]: cited from earlier work.
Series [3] is described as follows: DPPH radical scavenging assay. Conditions: 1 mg/mL, 517 nm. How it is done: The test observes the hydrogen donating capacity of the molecules which is shown with a decrease in the absorbance at 517 nm. The DPPH radical scavenging activity of the title hydrazide vh0 and hydrazide–hydrazones vh1-4 was determined in 1 mg/mL concentration with Trolox applied as a standard.
The radical scavenging activities of the title compounds were examined with a DPPH (2,2- diphenyl-1-picrylhydrazyl) test. A solution of DPPH has an intense violet color and a UV absorption at 515 nm could be observed. The presence of an antioxidant leads to visible decolorization of the sample and the absorption could be measured. Here, the scavenging rate of the DPPH radical was carried out by the widely employed classical protocol of Brand-Williams et al.. A 1 mg/mL of the title compounds were reacted with methonol solution of the DPPH (1 mmol/L). Thereafter, the obtained mixture was left in a dark palce for 15 min. The absorbance was assessed at 517 nm. Three measurements were conducted for each sample and Trolox was used as a standard.
In general terms: The DPPH test is a chemical assay of radical scavenging.

The nature of series [4]: ABTS radical scavenging assay. The conditions noted are these: 1 mg/mL, 734 nm. How it is done:
The radical scavenging properties of the newly synthesized structures were also calculated with the help of a ABTS test according to a modified method of Arnao et al.. The tests were conducted in methanol at room temperature. The absorbance of the solutions was measured at λ = 734 nm. The stable ABTS radical was produced by mixing 7 mmol/L solution of ABTS and 2.4 mmol/L solution of potassium persulphate, which were allowed to react for 14 h in the dark at room temperature. The working solutions were made of 2 mL of the stock solution diluted in 50 mL of methanol with an absorbance of 0.30 ± 0.04 units at […]. In total, 1 mL of the ABTS working solution was allowed to react with the pyrrole derivatives with concentrations of 1 mg/mL for 10 min. The inhibition percentage was calculated by applying the same formula as the DPPH assay.

In series [5] the target is T1, human recombinant MAOB (Homo sapiens, UniProt P27338).
T1 sequence (P27338 1-520): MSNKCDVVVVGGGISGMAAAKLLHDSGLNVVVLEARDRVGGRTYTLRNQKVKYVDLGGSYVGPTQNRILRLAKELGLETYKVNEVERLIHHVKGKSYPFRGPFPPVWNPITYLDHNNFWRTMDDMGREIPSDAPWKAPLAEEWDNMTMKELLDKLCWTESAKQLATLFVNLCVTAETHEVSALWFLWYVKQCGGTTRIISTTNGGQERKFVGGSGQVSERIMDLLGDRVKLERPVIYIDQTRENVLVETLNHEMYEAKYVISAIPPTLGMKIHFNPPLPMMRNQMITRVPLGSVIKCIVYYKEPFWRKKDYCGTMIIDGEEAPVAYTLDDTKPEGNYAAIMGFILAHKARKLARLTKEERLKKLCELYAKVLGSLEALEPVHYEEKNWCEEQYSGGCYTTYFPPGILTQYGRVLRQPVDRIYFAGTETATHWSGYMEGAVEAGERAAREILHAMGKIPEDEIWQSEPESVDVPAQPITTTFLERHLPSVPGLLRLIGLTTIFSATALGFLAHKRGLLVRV
Nature of the series: biochemical. In kind it is biochemical. The conditions noted are these: for hMAOB inhibition (decrease of hMAOB activity vs control): 1 μM; for IC50: mean ± SD, 2 h exposure, read-out: IC50 (EC50) hMAOB. The protocol:
The title compounds were tested for hMAOB activities by an in vitro method.
(§1) The examined compounds were evaluated for possible inhibitory capacity on human recombinant MAOA and MAOB enzymes by using the Amplex UltraRed (Sigma Aldrih and Acros, Merck KGaA, Darmstadt, Germany) reagent with some modifications. All reagents were prepared in accordance with the producer’s instructions. As a substrate the tyramine hydrochloride was used for hMAO-B and p-benzylamine for hMAO-A. The reaction mixture included a stock solution of Amplex Red, the reaction buffer at pH 7.4 and the storage solution of horseradish peroxidase (10 U/mL). Five concentrations of the exam compounds were applied. The combination: compounds + hMAOA/B was placed in a 96-well plate, and then the plate was incubated for 30 min (dark, at 37 °C). The reaction was started by the addition of 50 μL of the mix solution: Amplex Red, horseradish peroxidase, and tyramine/p-benzylamine, as an enzyme substrate, in the reaction buffer. The fluorescence was measured every 30 min until 150 min, in dark, while shaking the reaction mixture at constant temperature of 37 °C. The fluorimetric measurements were assessed using a Synergy 2 Microplate Reader (BioTek, Winooski, VT, USA).
(§2) The in vitro results (MAO-A, MAO-B and AChE inhibitory capacities) were expressed as a mean ± SD (n = 3). Values of p < 0.05 were considered statistically significant.

Series [6] has as its target eeAChE (Electrophorus electricus, UniProt O42275). The series can be described thus: biochemical. Conditions: for inhibition at 10 µM: read-out: AChE inhibition; for IC50 / IC50 (EC50) AChE: mean ± SD; for IC50: read-out: IC50 (EC50) AChE; for inhibition at 10 µM / AChE inhibition: 10 μM. The protocol:
The AChE potentials of the new valine-based molecules were evaluated according to a modified Ellman’s method. Initially, stock solutions (1 mg/mL) of the new structures were diluted in DMSO and five solutions were prepared by dilutions in order to access the inhibitory potential in different concentrations. Thereafter, the pyrrole-based molecules were incubated with sodium phosphate buffer, and AChE solution for ten minutes at 37 °C. The reaction was started by the addition of 5,5-dithio-bis-(2-nitrobenzoic acid) (DTNB) (10 mM; 20 μL) and acetylthiocholine iodide (14 mM; 20 μL). […] The percent inhibition activity was measured against the blank probe. Donepezil was utilized as a standart acetylcholinesterase inhibitor. The results were expressed as a mean ± SD (n = 3). Values of p < 0.05 were observed as statistically significant.
as §2

The target of series [7] is T2, human recombinant MAOA (Homo sapiens, UniProt P21397).
T2 sequence (P21397 1-527): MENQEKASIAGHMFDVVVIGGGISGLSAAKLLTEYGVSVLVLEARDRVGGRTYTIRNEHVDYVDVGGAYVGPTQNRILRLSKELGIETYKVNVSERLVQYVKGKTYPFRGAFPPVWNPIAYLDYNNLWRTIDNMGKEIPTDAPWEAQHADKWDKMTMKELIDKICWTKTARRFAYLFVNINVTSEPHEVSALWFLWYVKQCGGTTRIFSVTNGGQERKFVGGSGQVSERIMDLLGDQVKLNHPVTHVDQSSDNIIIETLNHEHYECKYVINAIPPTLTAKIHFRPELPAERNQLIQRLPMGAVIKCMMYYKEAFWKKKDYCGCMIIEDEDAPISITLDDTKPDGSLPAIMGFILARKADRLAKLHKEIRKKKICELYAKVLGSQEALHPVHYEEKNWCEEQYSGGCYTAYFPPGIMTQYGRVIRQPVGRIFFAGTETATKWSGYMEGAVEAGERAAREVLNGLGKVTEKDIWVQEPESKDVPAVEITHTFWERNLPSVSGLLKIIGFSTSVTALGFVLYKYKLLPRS
Nature of the series: hMAOA enzyme assay (Amplex UltraRed, fluorimetric). The format is biochemical. Conditions: mean ± SD; read-out: IC50 (EC50) hMAOA. How it is done: To observe the selectivity index of the title compounds, in vitro tests against MAO-A were carried out. The novel molecules were tested in the same concentrations as applied in the MAO-B evaluations—1 μM.
as §1, §2

eeAChE, sequence (O42275 24-633): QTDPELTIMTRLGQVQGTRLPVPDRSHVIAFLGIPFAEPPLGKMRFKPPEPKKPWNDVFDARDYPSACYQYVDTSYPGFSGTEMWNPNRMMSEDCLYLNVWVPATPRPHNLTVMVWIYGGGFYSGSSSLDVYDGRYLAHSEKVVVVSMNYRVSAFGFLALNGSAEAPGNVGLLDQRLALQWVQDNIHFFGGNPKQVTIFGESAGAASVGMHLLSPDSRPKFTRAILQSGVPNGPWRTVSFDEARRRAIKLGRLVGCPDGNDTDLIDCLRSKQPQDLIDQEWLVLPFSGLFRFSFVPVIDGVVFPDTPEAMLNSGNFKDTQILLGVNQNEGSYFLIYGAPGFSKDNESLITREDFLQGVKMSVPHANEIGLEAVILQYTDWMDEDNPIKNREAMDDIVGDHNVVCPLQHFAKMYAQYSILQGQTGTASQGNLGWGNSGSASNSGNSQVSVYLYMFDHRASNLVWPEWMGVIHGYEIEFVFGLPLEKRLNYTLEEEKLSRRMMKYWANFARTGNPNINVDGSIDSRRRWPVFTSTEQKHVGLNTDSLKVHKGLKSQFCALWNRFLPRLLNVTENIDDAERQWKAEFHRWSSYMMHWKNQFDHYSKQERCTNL

As to `CC(C)NCC(O)COc1cccc2ccccc12` (stereo not drawn) [Propranolol HCl, propranolol hydrochloride, reference compound], the “PAMPA BBB −logPe” value in series [1] (PAMPA, 4 h, 50 μM, pH 7.4) is reported as 4.949 ± 0.003. The “PAMPA BBB −logPe Literature” value in series [2] is listed as 3.7.

For the molecule `Cc1c(C)c2c(c(C)c1O)CCC(C)(C(=O)O)O2` (stereo not drawn) [Trolox, reference compound], in series [3], the “DPPH radical scavenging activity” value was 90.07%. This molecule also returned an ABTS radical-binding activity in series [4] of 100%.

As for `CCOC(=O)c1cc(-c2ccc(Br)cc2)n(C(C(=O)NN)C(C)C)c1C` (stereo not drawn) [vh0], the “DPPH radical scavenging activity” value in series [3] is reported as 76.10%. The molecule further gave an ABTS radical-binding activity in series [4] of 99.40%. In addition, in series [5], the “SI: hMAOB selectivity index = IC50(hMAO-A)/IC50(hMAO-B)” value was greater than 150, the “hMAOB inhibition (decrease of hMAOB activity vs control)” value is on record as 30% and the IC50 stood at 0.665 ± 0.2 µM. In series [1] (PAMPA-BBB), the BBB permeability class result was “medium (When 6 < –logPe < 5 the molecule is identified with a medium permeability)”. The “PAMPA BBB −logPe” value in series [1] (pH 7.4, 50 μM, 4 h at 25 °C) is 5.451 and 5.451 ± 0.005. Also, in series [6], the inhibition at 10 µM is 62% and the IC50 was 4.15 ± 1.31 µM. In addition, in series [7], the IC50 was greater than 100 µM.

On to `CCOC(=O)c1cc(-c2ccc(Br)cc2)n(C(C(=O)N/N=C/c2ccc(Cl)cc2)C(C)C)c1C` (stereo not drawn) [vh1], for which the ABTS radical-binding activity in series [4] is reported as 73.67%. In series [5], the “SI: hMAOB selectivity index = IC50(hMAO-A)/IC50(hMAO-B)” value is greater than 134, the “hMAOB inhibition (decrease of hMAOB activity vs control)” value is reported as “moderate activity” and the IC50 was 0.744 ± 0.18 µM. Besides, in series [6], the inhibition at 10 µM was determined as 19% and the IC50 worked out at 18.8 ± 0.91 µM. Also, the IC50 in series [7] is greater than 100 µM.

In the case of `CCOC(=O)c1cc(-c2ccc(Br)cc2)n(C(C(=O)N/N=C/c2cccc(F)c2)C(C)C)c1C` (stereo not drawn) [vh2], in series [5], the “SI: hMAOB selectivity index = IC50(hMAO-A)/IC50(hMAO-B)” value is listed as greater than 1 and the IC50 is greater than 100 µM. Moreover, in series [6], the AChE inhibition result is given as “weak AChE blocking activity”, the “IC50 (EC50) AChE” value was “inactive” and the IC50 is greater than 100 µM. Also, the IC50 in series [7] was greater than 100 µM.

Take `CCOC(=O)c1cc(-c2ccc(Br)cc2)n(C(C(=O)N/N=C/c2ccc(OC)cc2)C(C)C)c1C` (stereo not drawn) [vh3]: the ABTS radical-binding activity in series [4] stood at 58.27%. For the same molecule, in series [5], the “SI: hMAOB selectivity index = IC50(hMAO-A)/IC50(hMAO-B)” value is recorded as greater than 1 and the IC50 was greater than 100 µM. Also, in series [6], the AChE inhibition result was “weak AChE blocking activity”, the inhibition at 10 µM was 26% and the IC50 amounted to 16.3 ± 2.15 µM. Moreover, the IC50 in series [7] is greater than 100 µM.

As for `CCOC(=O)c1cc(-c2ccc(Br)cc2)n(C(C(=O)N/N=C/c2ccc(OC)cc2OC)C(C)C)c1C` (stereo not drawn) [vh4], in series [5], the “SI: hMAOB selectivity index = IC50(hMAO-A)/IC50(hMAO-B)” value is greater than 1 and the IC50 is greater than 100 µM. Also, in series [6], the “IC50 (EC50) AChE” value is “inactive” and the IC50 is greater than 100 µM. In series [7], the IC50 is greater than 100 µM.

The values are drawn from PMC11435393, “Novel Pyrrole Derivatives as Multi-Target Agents for the Treatment of Alzheimer’s Disease: Microwave-Assisted Synthesis, In Silico Studies and Biological Evaluation” (Pharmaceuticals, 2024).
